Results taken from patent publication US20110195900A1, “PEPTIDIC PTH RECEPTOR AGONISTS” (FERRING B.V., priority 2008, published 2011).
Read-outs that look alike come from different tables or passages of the source. Non-standard residues stand in square brackets, D forms with d. Residues, ends and D or L forms follow the SMILES beside them. 1Nal = N[C@@H](Cc1cccc2ccccc12)C(=O)O; 2Nal = N[C@@H](Cc1ccc2ccccc2c1)C(=O)O; β3hI = CC[C@H](C)[C@H](N)CC(=O)O; hSer = N[C@@H](CCO)C(=O)O; Nle = CCCC[C@H](N)C(=O)O; β3hA = C[C@H](N)CC(=O)O; Aib = CC(C)(N)C(=O)O; βAla = NCCC(=O)O

Experiments:
human PTH-1 receptor = target: T1, human PTH-1 receptor (Homo sapiens, UniProt Q03431); assay: Reporter gene assay (CRE-luciferase) for agonist activity in transiently transfected HEK-293 cells; format: cell-based; conditions: for hPTHR-2/hPTHR-1 / Selectivity hPTHR-2/hPTHR-1: ratio of EC50 values; for hPTHR-2/hPTHR-1: selectivity for hPTH-1 receptor over hPTH-2 receptor; for Selectivity hPTHR-2/hPTHR-1: Table 4 comparison data
T1 construct: expressed in transfected cells; host or cells: HEK-293
T1 sequence (Q03431 27-593): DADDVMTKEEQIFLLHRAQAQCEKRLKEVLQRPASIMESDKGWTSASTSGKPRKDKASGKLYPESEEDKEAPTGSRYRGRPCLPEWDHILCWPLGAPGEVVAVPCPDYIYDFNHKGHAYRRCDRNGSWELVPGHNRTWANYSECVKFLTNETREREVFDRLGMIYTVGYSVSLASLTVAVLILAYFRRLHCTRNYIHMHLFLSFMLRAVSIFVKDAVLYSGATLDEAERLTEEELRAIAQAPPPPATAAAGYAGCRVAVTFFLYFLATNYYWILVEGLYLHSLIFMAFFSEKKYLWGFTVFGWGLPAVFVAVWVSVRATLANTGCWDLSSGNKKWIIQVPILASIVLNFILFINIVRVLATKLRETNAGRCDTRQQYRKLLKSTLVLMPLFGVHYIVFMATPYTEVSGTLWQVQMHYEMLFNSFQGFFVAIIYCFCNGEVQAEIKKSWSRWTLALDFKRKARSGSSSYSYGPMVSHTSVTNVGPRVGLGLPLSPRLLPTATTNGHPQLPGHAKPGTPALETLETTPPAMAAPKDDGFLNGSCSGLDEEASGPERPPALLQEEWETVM
Procedure, shortened: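 HEK-293 cells transiently transfected with SV40-driven human PTH-1 receptor and CRE-luciferase reporter, exposed to serial compound dilutions for 4-5 h, then lysed for luciferase readout; efficacy and EC50 by non-linear regression, PTH (1-34) as internal control, n≥3. Selectivity measured in analogous human PTH-2 receptor luciferase reporter assays.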

human PTH-2 receptor = target: T2, human PTH-2 receptor (Homo sapiens, UniProt P49190); assay: Luciferase-based transcriptional reporter gene assay for selectivity; format: cell-based
T2 construct: expressed in transfected cells
Experimental: Agonist activity of compounds on the human PTH-1 receptor was determined in a reporter gene assay by transiently transfecting HEK-293 cells with plasmids encoding human PTH-1 receptor under control of the SV40 promoter and a luciferase reporter gene under control of cAMP responsive elements (CRE). See Himmler et al, J. Recept. Res. 13 (1993) 79-94, for further guidance on this assay. Transfected cells were exposed to serial dilutions of compounds for 4-5 hours followed by lysis of cells, determination of luciferase activity, and determination of compound efficacies and EC50 values through non-linear regression.
PTH (1-34) was used as an internal control in each experiment and compounds were tested in at least three independent experiments. To determine selectivity, compounds were tested in luciferase-based transcriptional reporter gene assays expressing the human PTH-2 receptor.

[1] = Table 3, luciferase reporter gene assay, read-out: hPTHR-2 EC50

T2 sequence (P49190 25-550): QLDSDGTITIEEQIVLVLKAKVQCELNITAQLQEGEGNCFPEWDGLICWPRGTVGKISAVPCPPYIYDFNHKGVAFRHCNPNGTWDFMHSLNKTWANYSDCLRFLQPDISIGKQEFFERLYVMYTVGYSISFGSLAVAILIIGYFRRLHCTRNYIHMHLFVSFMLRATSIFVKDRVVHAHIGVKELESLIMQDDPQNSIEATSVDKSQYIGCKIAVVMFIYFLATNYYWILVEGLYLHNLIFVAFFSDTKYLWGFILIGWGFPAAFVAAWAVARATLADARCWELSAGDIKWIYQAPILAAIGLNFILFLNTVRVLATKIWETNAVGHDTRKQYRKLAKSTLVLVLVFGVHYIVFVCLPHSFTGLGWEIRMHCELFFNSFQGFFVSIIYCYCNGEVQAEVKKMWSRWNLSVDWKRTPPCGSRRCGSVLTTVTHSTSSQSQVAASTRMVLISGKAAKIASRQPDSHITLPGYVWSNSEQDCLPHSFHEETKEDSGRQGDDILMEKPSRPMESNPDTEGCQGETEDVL

Row | EC50 (human PTH-2 receptor; [1]) | EC50 (human PTH-1 receptor; Table 3, HEK-293 cells, CRE-luciferase, 4-5 hours exposure, read-out: hPTHR-1 EC50) | Structure (SMILES) | EC50 (human PTH-1 receptor) | hPTHR-2/hPTHR-1 (human PTH-1 receptor; Table 3) | Selectivity hPTHR-2/hPTHR-1 (human PTH-1 receptor) | EC50 (human PTH-2 receptor)
1 | – | – | CCCC[C@H](NC(=O)[C@H](CC(C)C)NC(=O)[C@H](CCC(N)=O)NC(=O)[C@@H](NC(=O)[C@H](CCC(=O)O)NC(=O)[C@H](CO)NC(=O)[C@@H](NC(=O)C(C)(C)N)C(C)C)[C@@H](C)CC)C(=O)N[C@@H](Cc1c[nH]cn1)C(=O)N[C@@H](CC(N)=O)C(=O)N[C@@H](CC(C)C)C(=O)NCC(=O)N[C@@H](CCCCN)C(=O)N[C@@H](Cc1c[nH]cn1)C(=O)N[C@@H](CC(C)C)C(=O)N[C@@H](CC(N)=O)C(=O)N[C@@H](CO)C(=O)N[C@H](CC(=O)N[C@@H](CCC(=O)O)C(=O)N[C@@H](CCCNC(=N)N)C(=O)N[C@H](C(=O)N[C@@H](CCC(=O)O)C(=O)N[C@@H](Cc1cccc2ccccc12)C(=O)N[C@@H](CC(C)C)C(=O)N[C@@H](CCCNC(=N)N)C(=O)N[C@@H](CCCCN)C(=O)N[C@@H](CC(C)C)C(=O)N[C@@H](CC(C)C)C(=O)N[C@@H](CCC(N)=O)C(=O)N[C@@H](CC(=O)O)C(=O)N[C@H](C(N)=O)C(C)C)C(C)C)[C@@H](C)CC [SEQ ID NO: 5, [Aib^1, Nle^8, β-hIle^18,1-Nal^23, Leu^27] hPTH (1-31)-NH2] (H-[Aib]VSEIQL[Nle]HNLGKHLNS[β3hI]ERVE[1Nal]LRKLLQDV-NH2) | 0.05 nM | 387 | 387 | 18 nM
2 | – | – | CCCC[C@H](NC(=O)CCNC(=O)[C@H](CCCCN)NC(=O)[C@H](CC(C)C)NC(=O)[C@H](Cc1c[nH]cn1)NC(=O)[C@H](CCCCN)NC(=O)CNC(=O)[C@H](CC(C)C)NC(=O)[C@H](CO)NC(=O)[C@H](Cc1c[nH]cn1)NC(=O)[C@H](CCCC)NC(=O)[C@H](CC(C)C)NC(=O)[C@H](CCC(N)=O)NC(=O)[C@@H](NC(=O)[C@H](CCC(=O)O)NC(=O)[C@H](CO)NC(=O)[C@@H](NC(=O)C(C)(C)N)C(C)C)[C@@H](C)CC)C(=O)N[C@@H](CCC(=O)O)C(=O)N[C@@H](CCCNC(=N)N)C(=O)N[C@H](C(=O)N[C@@H](CCC(=O)O)C(=O)N[C@@H](Cc1cccc2ccccc12)C(=O)N[C@@H](CC(C)C)C(=O)N[C@@H](CCCNC(=N)N)C(=O)N[C@@H](CCCCN)C(=O)N[C@@H](CC(C)C)C(=O)N[C@@H](CC(C)C)C(=O)N[C@@H](CCC(N)=O)C(=O)N[C@@H](CCCNC(=N)N)C(=O)N[C@H](C(=O)N[C@@H](Cc1c[nH]cn1)C(=O)N[C@@H](CCC(=O)O)C(=O)N[C@@H](CCC(=O)O)C(N)=O)C(C)C)C(C)C [SEQ ID NO: 6, [Aib^1, Nle^8,18, Ser^10, Lys^16, β-Ala^17,1-Nal^23, Leu^27, Arg^30, Glu^33, Glu^34] hPTH (1-34)-NH2] (H-[Aib]VSEIQL[Nle]HSLGKHLK[βAla][Nle]ERVE[1Nal]LRKLLQRVHEE-NH2; N-terminus assumed) | 0.03 nM | 267 | – | 7 nM
3 | 18 nM | – | CCCC[C@H](NC(=O)[C@H](CO)NC(=O)[C@H](CC(N)=O)NC(=O)[C@H](CC(C)C)NC(=O)[C@H](Cc1c[nH]cn1)NC(=O)[C@H](CCCCN)NC(=O)CNC(=O)[C@H](CC(C)C)NC(=O)[C@H](CC(N)=O)NC(=O)[C@H](Cc1c[nH]cn1)NC(=O)[C@H](CCCC)NC(=O)[C@H](CC(C)C)NC(=O)[C@H](CCC(N)=O)NC(=O)[C@@H](NC(=O)[C@H](CCC(=O)O)NC(=O)[C@H](CO)NC(=O)[C@@H](NC(=O)[C@@H](N)CO)C(C)C)[C@@H](C)CC)C(=O)NCCC(=O)N[C@@H](CCCNC(=N)N)C(=O)N[C@H](C(=O)N[C@@H](CCC(=O)O)C(=O)N[C@@H](Cc1cccc2ccccc12)C(=O)N[C@@H](CC(C)C)C(=O)N[C@@H](CCCNC(=N)N)C(=O)N[C@@H](CCCCN)C(=O)N[C@@H](CC(C)C)C(=O)N[C@@H](CC(C)C)C(=O)N[C@@H](CCC(N)=O)C(=O)N[C@@H](CC(=O)O)C(=O)N[C@H](C(=O)N[C@@H](Cc1c[nH]cn1)C(=O)N[C@@H](CC(N)=O)C(=O)N[C@@H](Cc1ccccc1)C(N)=O)C(C)C)C(C)C [SEQ ID NO: 11, [Nle^8,18, β-Ala^19,1-Nal^23, Leu^27] hPTH-(1-34)-NH2] (H-SVSEIQL[Nle]HNLGKHLNS[Nle][βAla]RVE[1Nal]LRKLLQDVHNF-NH2; N-terminus assumed) | – | 69 | – | –
4 | 46 nM | 0.22 nM | CCCC[C@H](NC(=O)CCNC(=O)[C@H](CC(N)=O)NC(=O)[C@H](CC(C)C)NC(=O)[C@H](Cc1c[nH]cn1)NC(=O)[C@H](CCCCN)NC(=O)CNC(=O)[C@H](CC(C)C)NC(=O)[C@H](CC(N)=O)NC(=O)[C@H](Cc1c[nH]cn1)NC(=O)[C@H](CCCC)NC(=O)[C@H](CC(C)C)NC(=O)[C@H](CCC(N)=O)NC(=O)[C@@H](NC(=O)[C@H](CCC(=O)O)NC(=O)[C@H](CO)NC(=O)[C@@H](NC(=O)C(C)(C)N)C(C)C)[C@@H](C)CC)C(=O)N[C@@H](CCC(=O)O)C(=O)N[C@@H](CCCNC(=N)N)C(=O)N[C@H](C(=O)N[C@@H](CCC(=O)O)C(=O)N[C@@H](Cc1ccc2ccccc2c1)C(=O)N[C@@H](CC(C)C)C(=O)N[C@@H](CCCNC(=N)N)C(=O)N[C@@H](CCCCN)C(=O)N[C@@H](CCCCN)C(=O)N[C@@H](CC(C)C)C(=O)N[C@@H](CCC(N)=O)C(=O)N[C@@H](CC(=O)O)C(=O)N[C@H](C(=O)N[C@@H](Cc1c[nH]cn1)C(=O)N[C@@H](CC(N)=O)C(=O)N[C@@H](Cc1ccccc1)C(N)=O)C(C)C)C(C)C [SEQ ID NO: 13, [Aib^1, Nle^8,18, β-Ala^17,2-Nal^23] hPTH (1-34)-NH2] (H-[Aib]VSEIQL[Nle]HNLGKHLN[βAla][Nle]ERVE[2Nal]LRKKLQDVHNF-NH2; N-terminus assumed) | – | 213 | – | –
5 | – | – | CC[C@H](C)[C@H](NC(=O)[C@H](CCC(=O)O)NC(=O)[C@H](CO)NC(=O)[C@@H](NC(=O)[C@@H](N)CO)C(C)C)C(=O)N[C@@H](CCC(N)=O)C(=O)N[C@@H](CC(C)C)C(=O)N[C@@H](CCOC)C(=O)N[C@@H](Cc1c[nH]cn1)C(=O)N[C@@H](CC(N)=O)C(=O)N[C@@H](CC(C)C)C(=O)NCC(=O)N[C@@H](CCCCN)C(=O)N[C@@H](Cc1c[nH]cn1)C(=O)N[C@@H](CC(C)C)C(=O)N[C@@H](CC(N)=O)C(=O)NCCC(=O)N[C@@H](CCOC)C(=O)N[C@@H](CCC(=O)O)C(=O)N[C@@H](CCCNC(=N)N)C(=O)N[C@H](C(=O)N[C@@H](CCC(=O)O)C(=O)N[C@@H](Cc1cccc2ccccc12)C(=O)N[C@@H](CC(C)C)C(=O)N[C@@H](CCCNC(=N)N)C(=O)N[C@@H](CCCCN)C(=O)N[C@@H](CC(C)C)C(=O)N[C@@H](CC(C)C)C(=O)N[C@@H](CCC(N)=O)C(=O)N[C@@H](CC(=O)O)C(=O)N[C@H](C(=O)N[C@@H](Cc1c[nH]cn1)C(=O)N[C@@H](CC(N)=O)C(=O)N[C@@H](Cc1ccccc1)C(N)=O)C(C)C)C(C)C [SEQ ID NO: 17, [hSer(OMe)^8,18, β-Ala^17,1-Nal^23, Leu^27] hPTH(1-34)-NH2] (H-SVSEIQL[hSer](Me)HNLGKHLN[βAla][hSer](Me)ERVE[1Nal]LRKLLQDVHNF-NH2) | – | >300 | – | > 270 nM
6 | – | – | CCCC[C@H](NC(=O)[C@H](CC(C)C)NC(=O)[C@H](CCC(N)=O)NC(=O)[C@@H](NC(=O)[C@H](CCC(=O)O)NC(=O)[C@H](CO)NC(=O)[C@@H](NC(=O)[C@@H](N)CO)C(C)C)[C@@H](C)CC)C(=O)N[C@@H](Cc1c[nH]cn1)C(=O)N[C@@H](CC(N)=O)C(=O)N[C@@H](CC(C)C)C(=O)NCC(=O)N[C@@H](CCCCN)C(=O)N[C@@H](Cc1c[nH]cn1)C(=O)N[C@@H](CC(C)C)C(=O)N[C@@H](CC(N)=O)C(=O)N[C@@H](CO)C(=O)N[C@@H](C)CC(=O)N[C@@H](CCC(=O)O)C(=O)N[C@@H](CCCNC(=N)N)C(=O)N[C@H](C(=O)N[C@@H](CCC(=O)O)C(=O)N[C@@H](Cc1cccc2ccccc12)C(=O)N[C@@H](CC(C)C)C(=O)N[C@@H](CCCNC(=N)N)C(=O)N[C@@H](CCCCN)C(=O)N[C@@H](CC(C)C)C(=O)N[C@@H](CC(C)C)C(=O)N[C@@H](CCC(N)=O)C(=O)N[C@@H](CC(=O)O)C(=O)N[C@H](C(=O)N[C@@H](Cc1c[nH]cn1)C(=O)N[C@@H](CC(N)=O)C(=O)N[C@@H](Cc1ccccc1)C(N)=O)C(C)C)C(C)C [SEQ ID NO: 18, [Nle^8, β-hAla^18,1-Nal^23, Leu^27] hPTH (1-34)-NH2] (H-SVSEIQL[Nle]HNLGKHLNS[β3hA]ERVE[1Nal]LRKLLQDVHNF-NH2) | 0.22 nM | 281 | 281 | 61 nM
